N2 permeability [Barrer]	Compound	CH4 permeability [Barrer]	CO2 permeability [Barrer]	H2 permeability [Barrer]	O2 permeability [Barrer]
1.8	*/C=C/c1ccc(*)cc1[Si](CC)(CC)CC (repeat unit)		24		6.6
930	*C(=C(*)c1ccc(C(C)(C)C)cc1)c1ccccc1 (repeat unit)		6200		1710
150	*C(=C(*)c1ccc(C(C)C)cc1)c1ccccc1 (repeat unit)		1100		300
7.5	*C(=C(*)c1ccc([Si](C)(C)CCCCCCCC)cc1)c1ccc(C(C)(C)C)cc1 (repeat unit)		100		26
9.1	*C(=C(*)c1ccc([Si](C)(C)CCCCCCCC)cc1)c1ccc(C(C)C)cc1 (repeat unit)		120		29
11	*C(=C(*)c1ccc([Si](C)(C)CCCCCCCC)cc1)c1ccccc1 (repeat unit)		170		34
0.0986	*C(=O)c1ccc(C2(c3ccc(C(=O)c4ccc(Oc5ccc(C(=O)c6ccc(Oc7ccc(*)cc7)cc6)cc5)cc4)cc3)OC(=O)c3ccccc32)cc1 (repeat unit)	0.1	3.1	9.2	0.68
0.031	*C(=O)c1ccc(C2(c3ccc(C(=O)c4ccc(Oc5ccc(C(=O)c6cccc(C(=O)c7ccc(Oc8ccc(*)cc8)cc7)c6)cc5)cc4)cc3)OC(=O)c3ccccc32)cc1 (repeat unit)	0.0276	0.91	5.3	0.27
1.37	*C(=O)c1ccc([Si](C)(C)c2ccc(C(*)=O)cc2)cc1 (repeat unit)	1.39	22.2	27.1	5.54
0.00259	*C(=O)n1c(*)nc2cc3nc4c5ccc(*)c6c(*)ccc(c(=O)n4c3cc21)c65 (repeat unit)	0.0017	0.12		0.021
	*CC(*)(C)C#N (repeat unit)		0.0032		0.0012
	*CC(*)CC(C)C (repeat unit)		92.6		32.3
	*CC(*)F (repeat unit)		0.0791	0.35	
	*CC(*)O (repeat unit)		1.2e-06		7e-07
	*CC(*)OC(=O)c1ccccc1 (repeat unit)		6.32		
	*CC(*)OC(C)=O (repeat unit)			9.19	0.488
10.1	*CC(*)c1ccc(C([Si](C)(C)C)[Si](C)(C)C)cc1 (repeat unit)		150		37.7
	*CCSS* (repeat unit)		3.14	1.57	0.288

N2 permeability [Barrer]	Compound	CH4 permeability [Barrer]	CO2 permeability [Barrer]	H2 permeability [Barrer]	O2 permeability [Barrer]
	*Cc1ccc(C*)c(Br)c1 (repeat unit)		0.036	0.452	
	*Cc1ccc(C*)c(C#N)c1 (repeat unit)		0.301	1.78	0.0904
	*NCCCCCC(*)=O (repeat unit)		0.165		0.036
	*NCCCCCCCCCCC(*)=O (repeat unit)		1	2.63	
162	*Oc1cc2c(cc1O*)C1(CC2(C)C)CC(C)(C)c2cc3c(cc21)Oc1c(C#N)c(*)c(*)c(C(=O)O)c1O3 (repeat unit)		2540	1540	534
0.027	*Oc1ccc(-c2nn(-c3ccc(S(=O)(=O)c4ccc(*)cc4)cc3)c(=O)c3ccccc23)cc1 (repeat unit)		0.92	2.4	0.15
0.036	*Oc1ccc(Oc2ccc3c(c2)-c2nc4cc(Oc5ccc6nc7n(c6c5)C(=O)c5cc(*)ccc5-7)ccc4n2C3=O)cc1 (repeat unit)			5.34	0.23
1.5	*Oc1ccc(S(=O)(=O)c2ccc(Oc3c(C)cc(C(C)(C)c4cc(C)c(*)c(C)c4)cc3C)cc2C(O)(C(F)(F)F)C(F)(F)F)c(C(O)(C(F)(F)F)C(F)(F)F)c1 (repeat unit)		30		8.5
0.26	*Oc1ccc(S(=O)(=O)c2ccc(Oc3ccc(C(C)(C)c4ccc(*)c(C(OC)(C(F)(F)F)C(F)(F)F)c4)cc3C(OC)(C(F)(F)F)C(F)(F)F)cc2)cc1 (repeat unit)		7.7		2
0.026	*Oc1ccc2c(c1)-c1nc3cc(Oc4ccc5nc6n(c5c4)C(=O)c4cc(*)ccc4-6)ccc3n1C2=O (repeat unit)			6.88	0.22
9.4	*c1cc(CCCCCCCCCCCC)c(*)s1 (repeat unit)		88.2		20.2
5.2	*c1ccc(-c2ccc(N3C(=O)c4ccc(C(c5ccc6c(c5)C(=O)N(*)C6=O)(C(F)(F)F)C(F)(F)F)cc4C3=O)c(N)c2)cc1N (repeat unit)		138		34
0.07	*c1ccc(Oc2ccc(C(C)(C)c3ccc(Oc4ccc(N5C(=O)c6ccc(Oc7ccc8c(c7)C(=O)N(*)C8=O)cc6C5=O)cc4)cc3)cc2)cc1 (repeat unit)		2.7	8	0.49
0.53	*c1ccc2c(c1)-c1nc3ccc(-c4ccc5c(c4)nc4n5C(=O)c5cc(C(c6ccc7c(c6)C(=O)N(c6cc(C(c8ccc(O)c(N9C(=O)c%10ccc(C(*)(C(F)(F)F)C(F)(F)F)cc%10C9=O)c8)(C(F)(F)F)C(F)(F)F)ccc6O)C7=O)(C(F)(F)F)C(F)(F)F)ccc5-4)cc3n1C2=O (repeat unit)		15		3.2
	*c1ccc2c(c1)C(=O)N(c1ccc(Oc3ccc(N4C(=O)c5ccc(-c6nc7ccc(Cc8ccc9nc(*)oc(=O)c9c8)cc7c(=O)o6)cc5C4=O)cc3)cc1)C2=O (repeat unit)		0.26	2.56	
19	*c1cccc2c(-n3c(=O)c4cc5oc6cc7c(cc6oc5cc4c3=O)C3(CC(C)(C)c4cc5oc6cc8c(=O)n(*)c(=O)c8cc6oc5cc43)CC7(C)C)cccc12 (repeat unit)	27	510	350	77
0.13	*c1ccccc1Oc1ccc2ccccc2c1-c1c(Oc2ccccc2N2C(=O)c3ccc(C(c4ccc5c(c4)C(=O)N(*)C5=O)(C(F)(F)F)C(F)(F)F)cc3C2=O)ccc2ccccc12 (repeat unit)	0.07	4.88	6.86	0.99

Compound	N2 permeability [Barrer]	CH4 permeability [Barrer]	CO2 permeability [Barrer]	H2 permeability [Barrer]	O2 permeability [Barrer]
*/C(C)=C(/*)[Si](C)(C)c1ccccc1 (repeat unit)	1.2	1.7	37.6	14	4.4
*/C(C)=C(/*)c1ccc([Si](C)(C)C)cc1 (repeat unit)	100	200	950	510	240
*/C=C/C1CC(*)CC1[Si](C)(C)C (repeat unit)	7.2	17	89	140	30
*C(=C(*)c1ccccc1)c1ccccc1 (repeat unit)	2720	3700	6600		3600
*C(C)=C(*)CCC (repeat unit)	12	21	120	160	39
*C(C)=C(*)CCC(C)C (repeat unit)	51	112	390	370	130
*C(Cl)CCCC(*)S(=O)(=O)Cl (repeat unit)	0.955			13.3	3.29
*C/C=C\C* (repeat unit)	15.8		138	41.9	19
*CC(*)(Cl)Cl (repeat unit)	0.000939		0.029		0.00519
*CC(*)C#N (repeat unit)	0.00016		0.0018		0.00028
*CC(*)OC1CCCCC1 (repeat unit)	0.99		13.6		3.69
*CC(*)OCC1CC2CC1C1CCCC21 (repeat unit)	0.13		2.85		0.81
*CC(*)OCC1CCCCC1 (repeat unit)	0.4		5.89		1.55
*CC(*)[Si](C)(C)c1ccccc1 (repeat unit)	0.45		12.3		2.47
*CC(CCl)O* (repeat unit)	0.44			8.9	1.05
*CCC(F)(Cl)C(*)(F)F (repeat unit)	0.061		0.607		0.152
*Cc1ccc(C*)c(CC)c1 (repeat unit)	0.0904		1.89	4.31	0.5
*N=P(*)(C)C (repeat unit)	1.27		29.4		3.53
*Nc1ccc(*)cc1OCC (repeat unit)	0.107		2.22	8.1	0.62
*OC1OC(CO[N+](=O)[O-])C(OC2OC(O[N+](=O)[O-])C(O*)C(O)C2O[N+](=O)[O-])C(O)C1O[N+](=O)[O-] (repeat unit)	0.12			2	0.6

Reference: a polymer gas permeability compilation
